This note sets out measurements from paper PMC5750651, “Disposition, Metabolism and Histone Deacetylase and Acetyltransferase Inhibition Activity of Tetrahydrocurcumin and Other Curcuminoids” (Pharmaceutics, 2017).

For orientation: IC50 means the point on the concentration scale where inhibition reaches its midpoint.

The structures appear in SMILES notation.

For test [1], the system named is TNF-α release in Sup-T1 cells. Nature of the test: Cellular inflammatory cytokine release assay (TNF-α ELISA). The following applies: Sup-T1 cells, 5, 10, 50 and 100 μM, versus no-treatment control. Format: cell-based, human. The protocol: Cell culture supernatant was collected and used to determine released TNF-α using the Human TNF-alpha DuoSet ELISA kit (DY210, R & D systems, Minneapolis, MN, USA) following the standard manufacturer’s protocol, optimized using recombinant TNF-α. […] The data were analyzed using SigmaPlot 12.2 (Systat Software Inc., San Jose, CA, USA).

The test system of another test is Sup-T1 cells. Kind of test: Cellular growth inhibition assay (MTS). Particulars: Homo sapiens, SUP-T1, read-out: Viability IC50. Format: cell-based. The method, then: The CellTiter 96® AQueous One Solution Cell Proliferation Assay (MTS, Promega, Madison, WI, USA) was used to measure proliferation inhibition of cultured cells. Briefly, Sup-T1 cells were cultured in RPMI 1640 supplemented with 10% FBS and 1% penicillin/streptomycin at 37 °C and 5% CO2. […] The MTS reagent was added and incubated for 4 h. […] Sup-T1 cells were used in this study because curcuminoids are thought in part to work via an HDAC inhibitor mechanism and as some HDACs are approved for some T-cell lymphomas, we used Sup-T1 cells because they are a T-cell lymphoma cell line that is established. To the best of our knowledge no other study has measured the effects of THC on Sup-T1 cells.
(§1) Data for the PCAF and HDAC1 inhibition and viability assays were used to derive percent changes based on no treatment controls. Each of three data sets were then fit to a 4-parameter logistic regression using SigmaPlot 12.2 to derive IC50 values, which were then used to determine the mean and SD.

The next test addresses T1, COX-1 (Ovis aries, UniProt P05979).
T1 construct: purchased Cayman Chemical 560131
T1 sequence (P05979 25-600): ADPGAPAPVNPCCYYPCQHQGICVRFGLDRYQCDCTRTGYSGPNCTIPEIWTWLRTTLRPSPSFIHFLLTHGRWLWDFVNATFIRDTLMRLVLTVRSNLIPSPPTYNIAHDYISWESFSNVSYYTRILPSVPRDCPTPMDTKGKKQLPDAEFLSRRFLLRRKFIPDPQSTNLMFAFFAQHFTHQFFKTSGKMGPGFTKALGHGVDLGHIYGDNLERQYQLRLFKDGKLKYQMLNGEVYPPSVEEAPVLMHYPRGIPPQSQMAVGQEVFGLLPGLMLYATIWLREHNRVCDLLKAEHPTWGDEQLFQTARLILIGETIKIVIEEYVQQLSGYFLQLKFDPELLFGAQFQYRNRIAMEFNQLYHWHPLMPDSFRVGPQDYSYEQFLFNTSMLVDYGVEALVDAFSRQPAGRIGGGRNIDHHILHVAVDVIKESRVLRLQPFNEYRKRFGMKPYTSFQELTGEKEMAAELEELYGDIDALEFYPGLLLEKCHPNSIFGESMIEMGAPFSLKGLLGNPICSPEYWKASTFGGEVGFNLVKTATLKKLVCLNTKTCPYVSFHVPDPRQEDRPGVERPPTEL
Nature of the test: COX inhibitor screening assay kit, COX-1. The format is biochemical. Particulars: mean ± SD. The method, then:
The assay was performed in quadruplet using a COX Inhibitor Screening Assay Kit from Cayman Chemical (Cat. No. 560131) according to the manufacturer’s instructions.

A further test has as its target T2, PCAF (Homo sapiens, UniProt Q92831).
T2 construct: purchased Cayman 10006515
Nature of the test: PCAF inhibitor screening assay kit (fluorescence). The format is biochemical. Particulars: mean ± SD. The protocol: Curcuminoids were tested for direct HDAC1 and PCAF inhibitory activity using the fluorescent-based HDAC1 or PCAF inhibitor screening assay kit ((HDAC1) 10011564, (PCAF) 10006515, Cayman, Ann Arbor, MI, USA) according to manufacturer’s instructions.
as §1

The target of test [2] is T3, 15-lipoxygenase derived from soybean (Glycine max, UniProt P08170).
T3 sequence (P08170 1-839): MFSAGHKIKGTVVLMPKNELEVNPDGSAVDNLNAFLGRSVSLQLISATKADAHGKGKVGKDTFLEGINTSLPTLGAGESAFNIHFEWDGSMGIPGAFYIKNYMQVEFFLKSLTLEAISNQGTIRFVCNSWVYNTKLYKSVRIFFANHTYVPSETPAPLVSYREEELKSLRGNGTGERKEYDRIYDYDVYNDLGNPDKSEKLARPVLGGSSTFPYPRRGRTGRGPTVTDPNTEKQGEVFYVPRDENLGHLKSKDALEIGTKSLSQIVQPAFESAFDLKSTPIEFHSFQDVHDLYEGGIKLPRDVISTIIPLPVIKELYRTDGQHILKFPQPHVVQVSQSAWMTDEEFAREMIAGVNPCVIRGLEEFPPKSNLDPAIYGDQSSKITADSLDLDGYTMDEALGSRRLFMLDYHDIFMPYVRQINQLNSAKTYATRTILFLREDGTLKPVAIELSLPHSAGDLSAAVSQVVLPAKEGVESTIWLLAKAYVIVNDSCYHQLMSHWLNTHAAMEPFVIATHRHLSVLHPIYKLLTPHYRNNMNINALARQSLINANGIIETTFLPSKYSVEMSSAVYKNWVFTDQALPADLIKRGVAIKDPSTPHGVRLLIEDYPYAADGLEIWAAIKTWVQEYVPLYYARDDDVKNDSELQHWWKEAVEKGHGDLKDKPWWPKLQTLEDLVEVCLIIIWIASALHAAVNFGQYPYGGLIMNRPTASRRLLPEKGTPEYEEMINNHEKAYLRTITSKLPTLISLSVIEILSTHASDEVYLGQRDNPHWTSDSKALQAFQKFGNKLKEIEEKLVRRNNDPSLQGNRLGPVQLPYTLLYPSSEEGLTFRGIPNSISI
Nature of the test: Lipoxygenase inhibitor screening assay kit.

T2 sequence (Q92831 492-658 limits assumed): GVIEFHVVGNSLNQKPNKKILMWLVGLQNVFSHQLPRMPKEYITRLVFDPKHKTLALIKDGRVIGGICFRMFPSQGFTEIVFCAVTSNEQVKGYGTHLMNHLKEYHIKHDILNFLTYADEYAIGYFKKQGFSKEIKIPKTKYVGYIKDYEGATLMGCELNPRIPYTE

In the case of `COc1cc(/C=C/C(=O)CC(=O)/C=C/c2ccc(O)c(OC)c2)ccc1O` [Curcumin, curcumin], the “change in TNF-α concentration (in words)” value in test [1] is given as “slight decrease”. Moreover, the 50% inhibitory concentration (IC50) turned out to be 19 ± 11 µM in the test on Sup-T1 cells, 3390 ± 8980 µM against COX-1 and 33.1 ± 2.8 µM at PCAF. Besides, in test [2] (1, 10 and 250 μg/mL tested, versus control), the “lipoxygenase inhibition (in words)” value was “inhibited soybean 1,5-lipoxygenase at all doses tested”. For the same compound, the “lowest concentration inhibiting lipoxygenase” value in test [2] (soybean 15-lipoxygenase, linoleic acid substrate) is no more than 1 µM.
